Measured values: PubChem BioAssay (NCI)
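Growth conditions: 96-well plates. Treatment: test compound, 48 hours, 5 concentrations. Analysis: linear interpolation between bracketing concentrations; unreached endpoints set to highest concentration. At the TGI there is no net growth.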

Experiments:
Assay in all cases: NCI anticancer screen, dose series, 48 h
TK-10 renal = tested on: TK-10 renal
HOP-62 NSCLC = tested on: HOP-62 NSCLC
HCC-2998 colon = tested on: HCC-2998 colon
SF-268 CNS = tested on: SF-268 CNS
MOLT-4 leukemia = tested on: MOLT-4 leukemia
SK-MEL-5 melanoma = tested on: SK-MEL-5 melanoma
HCT-15 colon = tested on: HCT-15 colon
HCT-116 colon = tested on: HCT-116 colon
COLO 205 colon = tested on: COLO 205 colon
CCRF-CEM leukemia = tested on: CCRF-CEM leukemia
U251 CNS = tested on: U251 CNS
SK-OV-3 ovarian = tested on: SK-OV-3 ovarian
OVCAR-3 ovarian = tested on: OVCAR-3 ovarian
ACHN renal = tested on: ACHN renal
KM20L2 colon = tested on: KM20L2 colon
DMS 273 small cell lung = tested on: DMS 273 small cell lung
UACC-257 melanoma = tested on: UACC-257 melanoma
UO-31 renal = tested on: UO-31 renal
NCI-H226 lung = tested on: NCI-H226 lung
OVCAR-4 ovarian = tested on: OVCAR-4 ovarian
CAKI-1 renal = tested on: CAKI-1 renal
K-562 leukemia = tested on: K-562 leukemia
IGROV1 ovarian = tested on: IGROV1 ovarian
SK-MEL-28 melanoma = tested on: SK-MEL-28 melanoma
RXF 393 renal = tested on: RXF 393 renal
M19-MEL melanoma = tested on: M19-MEL melanoma
A549 NSCLC = tested on: A549 NSCLC
SF-539 CNS = tested on: SF-539 CNS
SW-620 colon = tested on: SW-620 colon
SK-MEL-2 melanoma = tested on: SK-MEL-2 melanoma
SR leukemia = tested on: SR leukemia
RPMI-8226 leukemia = tested on: RPMI-8226 leukemia
M14 melanoma = tested on: M14 melanoma
SNB-19 CNS = tested on: SNB-19 CNS
KM12 colon = tested on: KM12 colon
UACC-62 melanoma = tested on: UACC-62 melanoma
HOP-18 NSCLC = tested on: HOP-18 NSCLC
DLD-1 colon = tested on: DLD-1 colon
OVCAR-8 ovarian = tested on: OVCAR-8 ovarian
SNB-78 CNS = tested on: SNB-78 CNS
SNB-75 CNS = tested on: SNB-75 CNS
NCI-H460 lung = tested on: NCI-H460 lung
HL-60(TB) leukemia = tested on: HL-60(TB) leukemia
SN12C renal = tested on: SN12C renal
A498 renal = tested on: A498 renal
786-0 renal = tested on: 786-0 renal
LXFL 529 NSCLC = tested on: LXFL 529 NSCLC
NCI-H522 lung = tested on: NCI-H522 lung
DMS 114 small cell lung = tested on: DMS 114 small cell lung
MALME-3M melanoma = tested on: MALME-3M melanoma
OVCAR-5 ovarian = tested on: OVCAR-5 ovarian
HOP-92 NSCLC = tested on: HOP-92 NSCLC
SF-295 CNS = tested on: SF-295 CNS
NCI-H23 lung = tested on: NCI-H23 lung
HT29 colon = tested on: HT29 colon
LOX IMVI melanoma = tested on: LOX IMVI melanoma
EKVX NSCLC = tested on: EKVX NSCLC
XF 498 CNS = tested on: XF 498 CNS

Measured: TGI

CCCNC(=O)C(C)(Cl)C(=O)c1ccccc1O (centres undefined)
> 100 µM: TK-10 renal | HOP-62 NSCLC | HCC-2998 colon | SF-268 CNS | MOLT-4 leukemia | SK-MEL-5 melanoma | HCT-15 colon | HCT-116 colon | COLO 205 colon | CCRF-CEM leukemia | U251 CNS | SK-OV-3 ovarian | OVCAR-3 ovarian | ACHN renal | KM20L2 colon | DMS 273 small cell lung | UACC-257 melanoma | UO-31 renal | NCI-H226 lung | OVCAR-4 ovarian | CAKI-1 renal | K-562 leukemia | IGROV1 ovarian | SK-MEL-28 melanoma | RXF 393 renal | M19-MEL melanoma | A549 NSCLC | SF-539 CNS | SW-620 colon | SK-MEL-2 melanoma | SR leukemia | RPMI-8226 leukemia | M14 melanoma | SNB-19 CNS | KM12 colon | UACC-62 melanoma | HOP-18 NSCLC | DLD-1 colon | OVCAR-8 ovarian | SNB-78 CNS | SNB-75 CNS | NCI-H460 lung | HL-60(TB) leukemia | SN12C renal | A498 renal | 786-0 renal | LXFL 529 NSCLC | NCI-H522 lung | DMS 114 small cell lung | MALME-3M melanoma

NC(N)=C1CN(C2CCCCC2)C(=O)NC1=O
> 100 µM: TK-10 renal | HOP-62 NSCLC | HCC-2998 colon | SF-268 CNS | MOLT-4 leukemia | SK-MEL-5 melanoma | HCT-15 colon | HCT-116 colon | COLO 205 colon | CCRF-CEM leukemia | U251 CNS | OVCAR-5 ovarian | SK-OV-3 ovarian | OVCAR-3 ovarian | ACHN renal | HOP-92 NSCLC | KM20L2 colon | DMS 273 small cell lung | UACC-257 melanoma | SF-295 CNS | UO-31 renal | NCI-H226 lung | OVCAR-4 ovarian | CAKI-1 renal | K-562 leukemia | IGROV1 ovarian | NCI-H23 lung | SK-MEL-28 melanoma | RXF 393 renal | M19-MEL melanoma | A549 NSCLC | SF-539 CNS | SW-620 colon | SK-MEL-2 melanoma | SR leukemia | RPMI-8226 leukemia | HT29 colon | M14 melanoma | SNB-19 CNS | LOX IMVI melanoma | KM12 colon | UACC-62 melanoma | HOP-18 NSCLC | DLD-1 colon | OVCAR-8 ovarian | SNB-78 CNS | SNB-75 CNS | NCI-H460 lung | HL-60(TB) leukemia | SN12C renal | A498 renal | 786-0 renal | LXFL 529 NSCLC | NCI-H522 lung | DMS 114 small cell lung | MALME-3M melanoma

COc1cccc(NC(=O)CC(=O)N2NC(c3ccccc3)C(N=Nc3cccc(C(=O)O)c3)C2=O)c1 (centres undefined)
> 100 µM: TK-10 renal | EKVX NSCLC | HOP-62 NSCLC | HCC-2998 colon | SF-268 CNS | MOLT-4 leukemia | SK-MEL-5 melanoma | HCT-116 colon | U251 CNS | OVCAR-5 ovarian | SK-OV-3 ovarian | OVCAR-3 ovarian | ACHN renal | HOP-92 NSCLC | KM20L2 colon | UACC-257 melanoma | SF-295 CNS | XF 498 CNS | UO-31 renal | NCI-H226 lung | OVCAR-4 ovarian | CAKI-1 renal | IGROV1 ovarian | NCI-H23 lung | SK-MEL-28 melanoma | RXF 393 renal | M19-MEL melanoma | A549 NSCLC | SF-539 CNS | SW-620 colon | SR leukemia | RPMI-8226 leukemia | HT29 colon | M14 melanoma | SNB-19 CNS | LOX IMVI melanoma | KM12 colon | UACC-62 melanoma | DLD-1 colon | OVCAR-8 ovarian | SNB-78 CNS | SNB-75 CNS | NCI-H460 lung | SN12C renal | A498 renal | 786-0 renal | LXFL 529 NSCLC | DMS 114 small cell lung | MALME-3M melanoma

Nc1nc2c(nc(N)n2Cc2ccccc2)c(=O)[nH]1
> 100 µM: TK-10 renal | EKVX NSCLC | HOP-62 NSCLC | HCC-2998 colon | SF-268 CNS | MOLT-4 leukemia | SK-MEL-5 melanoma | HCT-15 colon | HCT-116 colon | COLO 205 colon | CCRF-CEM leukemia | U251 CNS | OVCAR-5 ovarian | SK-OV-3 ovarian | OVCAR-3 ovarian | ACHN renal | HOP-92 NSCLC | KM20L2 colon | DMS 273 small cell lung | UACC-257 melanoma | SF-295 CNS | XF 498 CNS | UO-31 renal | OVCAR-4 ovarian | CAKI-1 renal | K-562 leukemia | IGROV1 ovarian | NCI-H23 lung | SK-MEL-28 melanoma | RXF 393 renal | M19-MEL melanoma | A549 NSCLC | SW-620 colon | SK-MEL-2 melanoma | SR leukemia | RPMI-8226 leukemia | HT29 colon | M14 melanoma | SNB-19 CNS | LOX IMVI melanoma | KM12 colon | UACC-62 melanoma | DLD-1 colon | OVCAR-8 ovarian | SNB-75 CNS | NCI-H460 lung | HL-60(TB) leukemia | SN12C renal | A498 renal | 786-0 renal | LXFL 529 NSCLC | NCI-H522 lung | DMS 114 small cell lung | MALME-3M melanoma

C=CCC12CC(=O)CCC1CC(=O)C2 (centres undefined)
> 100 µM: TK-10 renal | HOP-62 NSCLC | HCC-2998 colon | SF-268 CNS | MOLT-4 leukemia | SK-MEL-5 melanoma | HCT-15 colon | HCT-116 colon | COLO 205 colon | CCRF-CEM leukemia | U251 CNS | SK-OV-3 ovarian | OVCAR-3 ovarian | ACHN renal | KM20L2 colon | DMS 273 small cell lung | UACC-257 melanoma | UO-31 renal | NCI-H226 lung | OVCAR-4 ovarian | CAKI-1 renal | K-562 leukemia | IGROV1 ovarian | SK-MEL-28 melanoma | RXF 393 renal | M19-MEL melanoma | A549 NSCLC | SF-539 CNS | SW-620 colon | SK-MEL-2 melanoma | SR leukemia | RPMI-8226 leukemia | M14 melanoma | SNB-19 CNS | KM12 colon | UACC-62 melanoma | HOP-18 NSCLC | DLD-1 colon | OVCAR-8 ovarian | SNB-78 CNS | SNB-75 CNS | NCI-H460 lung | HL-60(TB) leukemia | SN12C renal | A498 renal | 786-0 renal | LXFL 529 NSCLC | NCI-H522 lung | DMS 114 small cell lung | MALME-3M melanoma
